{"source": "patent US20180303812A1", "about": "“PHARMACEUTICAL COMPOSITION FOR USE IN TREATING AML AND METHOD OF TREATING AML IN A SUBJECT IN NEED THEREOF” (DAIICHI SANKYO COMPANY, LIMITED, priority 2015, published 2018)", "key": {"[1]": {"test_system": "AML samples (mononuclear cells from peripheral blood or bone marrow of AML patients)", "assay": "Ex vivo treatment of primary AML patient samples; live cells by annexin V / propidium iodide binding assays", "format": "cell-based, human", "experimental": "Leukemia samples isolated from peripheral blood or bone marrow of patients with newly diagnosed or relapsed/refractory AML were treated using the test compound as described below.\nHeparinized peripheral blood and bone marrow samples containing more than 1.6×10^7 mononuclear cells were obtained from AML patients with newly diagnosed or relapsed/refractory AML, after informed consent according to the University of Texas MD Anderson Cancer Center (MDA, Houston, Tex., USA) guidelines in accordance with the Declaration of Helsinki. In each sample, the blast counts (blast %) was determined from routine morphological differential counts by clinical laboratory technicians, confirmed by hematopathologists at MDA (usually 500 cells were counted). […]\nMononuclear cells were purified by density-gradient centrifugation. The cells were cultured in RPMI 1640 medium containing 10% fetal bovine serum and were treated ex vivo for 48 hours with the test compound (0, 25, 50, 100, 250, 500, or 1000 nM), and live cell numbers were determined by apoptosis analysis using annexin V and propidium iodide (PI, purchased from Sigma-Aldrich) binding assays. Annexin V- and PI-negative cells were counted as live cells. Apoptosis was quantified as the proportion of annexin V-positive cells, and specific apoptosis was calculated by the following formula: % specific apoptosis=(test−control)×100/(100−control). […]"}, "[2]": {"test_system": "AML", "details": "AML patients; cited from earlier work"}}, "data": [{"molecule": "CC1(C)CCC2(CC1)N[C@@H](C(=O)N[C@@H]1CC[C@@H](C(N)=O)OC1)[C@H](c1ccnc(Cl)c1F)[C@]21C(=O)Nc2cc(Cl)ccc21.Cc1ccc(S(=O)(=O)O)cc1", "note": "[Compound 2, (3′R,4′S,5′R)—N-[(3R,6S)-6-carbamoyltetrahydro-2H-pyran-3-yl]-6″-chloro-4′-(2-chloro-3-fluoropyridin-4-yl)-4,4-dimethyl-2″-oxo-1″,2″-dihydrodispiro[cyclohexane-1,2′-pyrrolidine-3′,3″-indole]-5′-carboxamide mono(4-methylbenzenesulfonate) monohydrate]", "values": [{"measurement": "leukemia cells induce apoptosis", "setting": "[1]; in other samples", "result": "less than 20%"}, {"measurement": "leukemia cells induced apoptosis", "setting": "[1]; in some of the samples, at a higher concentration", "result": "more than 80%"}]}, {"molecule": "CCOc1cc(C(C)(C)C)ccc1C1=N[C@@](C)(c2ccc(Cl)cc2)[C@@](C)(c2ccc(Cl)cc2)N1C(=O)N1CCN(CCCS(C)(=O)=O)CC1", "note": "[RG7112]", "values": [{"measurement": "clinical response", "setting": "[2]", "result": "clinical responses including complete remissions"}]}]}
